{"source": "patent US20260242440A1", "about": "“NOVEL MEANS TO MODULATE NMDA RECEPTOR-MEDIATED TOXICITY” (FUNDAMENTAL PHARMA GMBH, priority 2018, published 2026)", "key": {"[1]": {"test_system": "NMDA receptor", "test": "NMDA-induced calcium transients (Fura2 calcium imaging)", "type": "cell-based, mouse", "conditions": "hippocampal neurons, 6 min NMDA (20 μM) application", "procedure": "In a further experiment, the impact of P4 and P15 on NMDA-induced calcium transients was assessed. Briefly, for calcium imaging, primary hippocampal neurons on coverslips were loaded with the cell-permeable, high-affinity ratiometric calcium indicator Fura2-AM (Invitrogen™ F1221), at 1 μM in CO2-independent culture medium (CICM; CICM contains: 10 mM HEPES, 140 mM NaCl, 2.5 mM KCl, 1.0 mM MgCl2, 2.0 mM CaCl2, 1.0 mM Glycine, 35.6 mM Glucose and 0.5 mM Na-pyruvate) for 30 min at 37° C., then washed and left in CICM for another 30 min to allow for de-esterification. Fura2 was excited at 340/11 nm and 380/11 nm, and fluorescence emission was obtained from a 40× UV compatible objective (LUMPLFLN, Olympus) through a 510/20 nm emission filter. For quantification, ImageJ was used to calculate average background-subtracted fluorescence intensities for 340 and 380 nm excitation (F340 and F380) from each neuron. Intracellular calcium levels were plotted as F340/F380 ratios over time, from which the NMDA response amplitude and area under the curve (AUC) was calculated to quantify NMDA-induced calcium influx."}, "[2]": {"test_system": "HEK293 cells", "test": "Luminescent cytotoxicity assay, HEK293 cells transfected with GRIN1 and GRIN2A or GRIN2B", "type": "cell-based, human", "conditions": "compound added 6 h after transfection; cell death 48 h after transfection", "procedure": "HEK293 cells were cultured in Dulbecco's Modified Eagle Medium (DMEM, Gibco™ 41965-039) supplement with 10% Fetal Bovine Serum (FBS, Gibco™, 10270), 1% Sodium Pyruvate (Gibco™, 11360070), 1% MEM NEAA (GibcoT^M, 11140035) and 0.5% Penicillin-Streptomycin (P-S; Sigma, P0781) and Passagel5-25 were used for experiments.\nTo test the cytotoxicity of compounds according to the present invention, HEK293 cells (70-80% confluent) were transfected 24 hours after plating with both GRIN1 and GRIN2 Å or GRIN2B, respectively (1:[…]) with Lipofectamine 2000 according to manufacturer's instructions. The relative number of dead cells in the population at the indicated time points after transfection was measured with the CytoTox-Glo™ Cytotoxicity assay (Promega, G9290) according to manufacturer's instruction with minor modification. Briefly, 10% of total medium were mixed with 10 μL AAF-amino luciferin to reach a final volume at 200 μL with water, the dead cell relative luminescence units (DRLU) was measured by GloMax (Promega) in a 96 well white bottom polystyrene microplate (Corning Costar®, 3912). After all the measurements, lysis reagents have been added to the cells and 10% of lysate was used for the total cell relative luminescence units (TRLU) measurement. Cell death was calculated by the following equations: […]\nFor drug testing, P4, P8, P9, P13 and P15 were added to the medium at indicated concentration 6 h after transfection. DRLU, TRLU and cell death were measured and calculated 48 h after transfection."}, "[3]": {"test_system": "primary mouse hippocampal neurons", "test": "NMDA induced cell death (excitotoxicity) in cultured primary neurons", "type": "cell-based", "conditions": "polypeptide expressed via rAAV infection on DIV3, NMDA 20 μM for 10 min, cell death assessed 24 h later", "procedure": "Primary mouse hippocampal and cortical neurons were prepared and maintained as known. Briefly, hippocampi or cerebral cortex from P0 C57Bl/6NCrl mice were dissociated and plated at a density of 1.2*105/cm^2 in Growth Medium (GM), consisting of Neurobasal A medium (Gibco™, 10888022), 2% serum free B27™ Supplement (Gibco™, 17504044), 1% rat serum (Biowest, S2150), 0.5 mM L-Glutamine (Sigma, G7513) and 0.5% P-S. Cytosine β-D-arabinofuranoside (AraC; Sigma, C1768; 2.8 μM) was added on DIV3 to prevent the proliferation of glial cells. From DIV8, half of the medium was replaced by GM without Rat serum every 48 h until being used for experiments. 24 h before experiments, GM was replaced with transfection medium (10 mM HEPES, pH 7.4, 114 mM NaCl, 26.1 mM NaHCO3, 5.3 mM KCl, 1 mM MgCl2, 2 mM CaCl2, 30 mM glucose, 1 mM glycine, 0.5 mM C3H3NaO3, and 0.001% phenol red and 10% of phosphate-free Eagle's minimum essential medium, supplemented with 7.5 µg/ml insulin, 7.5 µg/ml transferrin and 7.5 ng/ml sodium selenite (ITS Liquid Media Supplement, Sigma-Aldrich Cat #I3146)). Primary hippocampal neurons were used in live cell imaging, cell death experiments, while cortical neurons were used for mRNA and protein extraction analysis.\nAll viral particles were produced and purified as known in the art. All TRPM4 derived peptides (comprising SEQ ID NO:5, or any of SEQ ID NO:46 to SEQ ID NO:56) were cloned into rAAV backbone by PCR. shRNA against mouse TRPM4 were designed by BLOCK-iT™ RNAi Designer from Thermofisher to target: […] (SEQ ID NO:44, shTRPM4-1) and […] (SEQ ID NO:45, shTRPM4-2). Scramble shRNA (shSCR) has been tested and proven to have no known targets in mice. GPI anchor ([…], e.g. used in SEQ ID NO:53) sequences were synthesized by Eurofins Genomics (Ebersberg, Germany). All primers were synthesized and all plasmids were confirmed by sequencing by Eurofins Genomics.\nIn order to investigate the role of TRPM4 in NMDA receptor mediated excitotoxicity, the inventors used RNA interference strategies to knock down TRPM4. Cultured primary mouse hippocampus neurons were infected on day 3 in vitro (DIV3) with recombinant adeno-associated viruses (rAAVs) providing for expression of a scramble control (shSCR), shTRPM4-1 (SEQ ID NO:44) or shTRPM4-2 (SEQ ID NO:45). On DIV15-16, neurons were challenged with N-methyl-D-aspartate (NMDA, 20 μM) for 10 min. After NMDA wash out, neurons were kept in the culture medium for another 24 h before analysis. […] Evidently, TRPM4 is thus involved in the process of NMDA receptor mediated excitotoxicity.\nIn a next step, the inventors tried to identify regions in the mouse TRPM4 protein potentially involved in NMDA receptor mediated excitotoxicity. For this purpose, polypeptide fragments of mouse TRPM4 protein were generated and their impact on NMDA induced excitotoxicity analysed. To do so, primary neuron cultures were infected with respective rAAVs on DIV3, challenged with NMDA (20 μM) for 10 min on DIV17 and cell death assessed 24 hours later.\nThe sequence of SEQ ID NO:5 in TRPM4 is located in vivo just beneath the plasma membrane. […] To test this hypothesis, the inventors created a fusion protein comprising SEQ ID NO:5 and a GPI anchor, SEQ ID NO:57. The sequence of the fusion is given in SEQ ID NO:53. Neurons infected with rAAV and expressing SEQ ID NO:47 (control) or SEQ ID NO:53 were exposed to NMDA (20 μM) for 10 min on DIV15-16, with cell death assessed after 24 h.\nIn a next step, the inventors created a mutant of SEQ ID NO:5, in which two adjacent phenylalanine residues where substituted by tyrosine residues (SEQ ID NO: 54). […] TRPM5 is a protein related to but nonetheless distinct to TRPM4. The region in TRPM5 corresponding to SEQ ID NO:5, SEQ ID NO:55, shares only about 60% sequence identity with SEQ ID NO:5. Neurons were infected on DIV3 with rAAVs expressing SEQ ID NO: 5, SEQ ID NO: 54 or SEQ ID NO:55 and exposed to NMDA (20 μM) for 10 min on DIV17, with cell death assessed 24 h later. […]"}, "[4]": {"test_system": "primary mouse hippocampal neurons", "test": "NMDA receptor induced mitochondrial membrane potential breakdown (Rh123 imaging)", "type": "cell-based", "conditions": "polypeptides expressed via rAAV; bath application of 20 μM NMDA", "procedure": "Coverslips with primary cultured neurons (DIV15-DIV17) were used to examine mitochondrial membrane potential (Ψm) and mitochondrial calcium signalling, which was performed at room temperature in CO2-independent culture medium (CICM) containing: 10 mM HEPES, 140 mM NaCl, 2.5 mM KCl, 1.0 mM MgCl2, 2.0 mM CaCl2, 1.0 mM Glycine, 35.6 mM Glucose and 0.5 mM Na-pyruvate. All images were obtained by a cooled-CCD camera (iXon 887, Andor) on an upright microscope (BX51WI, Olympus). Fluorescence excitation was provided by a xenon arc lamp in combination with an excitation filter wheel (MT-20, Olympus). Data were collected using Cell^R software (Olympus), analysed using ImageJ and quantified using Igor Pro (WaveMetrics). Ψm was detected with the small molecule fluorescence indicator Rhodamine 123 (Rh123; Molecular Probe™, R302). Primary cultured neurons were loaded with 4.3 μM Rh123 in CICM at 37° C. for 30 min, then washed and left in CICM for another 30 min before recording. At the end of each experiment, the mitochondrial uncoupler FCCP (5 μM, Sigma-Aldrich, Cat #C2920) was applied to the cells to reach the maximal Rh123 fluorescence intensity. Rh123 was imaged with 470±20 nm excitation and 525±25 nm emission wavelengths using a 20× objective. Rh123 fluorescence intensity was measured in the nucleus to minimize contamination from cytosolic mitochondrial signal and Rh123 fluorescence intensity was normalized to the maximum FCCP signal for each region of interest.\nMitochondrial dysfunction is a hallmark of NMDA receptor excitotoxicity and an early event en-route to neuronal death. A parameter that is often used to assess mitochondrial integrity is the mitochondrial membrane potential. A breakdown of the mitochondrial membrane potential can be observed after exposure of hippocampal or cortical neurons to NMDA and indicates excitotoxicity-associated mitochondrial dysfunction. Therefore, the inventors investigated the effect of polypeptides comprising the sequence of SEQ ID NO:5 or SEQ ID NO: 54 as well as of the control TRMP5 sequence (SEQ ID NO: 55) on mitochondrial membrane potential break down in primary mouse hippocampal neurons. Excitotoxicity leading to mitochondrial membrane potential break down was induced with bath application of 20 μM NMDA. After 11 minutes, the mitochondrial uncoupler, carbonylcyanide-p-trifluoromethoxyphenylhydrazone (FCCP) was added. Addition of FCCP leads to break-down of the mitochondrial membrane potential and served as a control of the test system."}, "[5]": {"test_system": "primary mouse hippocampal neurons", "test": "NMDA induced cell death (excitotoxicity) in cultured primary neurons", "type": "cell-based", "conditions": "neurons incubated 1 h with 1 or 10 μg fusion protein before NMDA 20 μM 10 min; cell death 24 h later"}}}
{"molecule": "MK-801 maleate [reference compound]", "values": [{"measurement": "NMDA-induced calcium transients", "setting": "[1]", "result": "completely blocked"}]}
{"molecule": "CNCC1CCN(C(=O)c2ccc(-n3cnc4ccccc43)cc2)CC1", "note": "[P8]", "values": [{"measurement": "NMDA receptor induced cell death", "setting": "[2]", "result": "reduced the level of NMDA receptor induced cell death"}]}
{"molecule": "SEQ ID NO:55: corresponding region of mouse TRPM5, about 60% sequence identity with SEQ ID NO:5, negative control (NSEDRAFALLVRRNHSWSRTTCLHLATEADAKAFFAHDGVQAFLTKIWWGDMATGTP; listed as Mus musculus) [reference compound]", "values": [{"measurement": "protection against NMDA induced cell death (neuroprotective effect)", "setting": "[3]", "result": "not capable of reducing NMDA receptor-mediated cell toxicity"}, {"measurement": "protection against NMDA induced cell death (neuroprotective effect)", "setting": "[3]; listed as SEQ ID NO: 55", "result": "did not reduce NMDA receptor-mediated cell toxicity"}, {"measurement": "NMDA receptor induced mitochondrial membrane potential breakdown", "setting": "[4]", "result": "not capable of preventing NMDA receptor induced mitochondrial membrane potential breakdown"}]}
{"molecule": "CC1(CN)CCN(CC(=O)Nc2cc(Cl)ccc2Cl)C1", "note": "(centres unmarked) [P13]", "values": [{"measurement": "NMDA receptor induced cell death", "setting": "[2]", "result": "reduced the level of NMDA receptor induced cell death"}]}
{"molecule": "O=C(NCc1ccc(CN2CCC(O)CC2)cc1)C1CC(F)(F)CN1", "note": "(centres unmarked) [P9]", "values": [{"measurement": "NMDA receptor induced cell death", "setting": "[2]", "result": "reduced the level of NMDA receptor induced cell death"}]}
{"molecule": "SEQ ID NO:56: fusion protein of SEQ ID NO:5 and protein transduction domain TAT (SEQ ID NO:42) (protein, Fusion protein composed of TAT peptide and SEQ ID NO: 5) RKKRRQRRRSQPNSEERAARLLLRRCPLWGEATCLQLAMQADARAFFAQDGVQSLLTQKWWGEMDSTTP", "values": [{"measurement": "protection against NMDA excitotoxicity (cell death)", "setting": "[5]", "result": "protected neurons from NMDA excitotoxicity"}]}
